For experiment [1], the target named is T1, Angiotensin-converting enzyme (Oryctolagus cuniculus, UniProt P12822).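 Note: enzymatic inhibition of angiotensin-converting enzyme measured with FAPGG as the substrate; in other assays of this panel Not Active means under 50% inhibition at 10 µM.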
T1 sequence (P12822 whole entry): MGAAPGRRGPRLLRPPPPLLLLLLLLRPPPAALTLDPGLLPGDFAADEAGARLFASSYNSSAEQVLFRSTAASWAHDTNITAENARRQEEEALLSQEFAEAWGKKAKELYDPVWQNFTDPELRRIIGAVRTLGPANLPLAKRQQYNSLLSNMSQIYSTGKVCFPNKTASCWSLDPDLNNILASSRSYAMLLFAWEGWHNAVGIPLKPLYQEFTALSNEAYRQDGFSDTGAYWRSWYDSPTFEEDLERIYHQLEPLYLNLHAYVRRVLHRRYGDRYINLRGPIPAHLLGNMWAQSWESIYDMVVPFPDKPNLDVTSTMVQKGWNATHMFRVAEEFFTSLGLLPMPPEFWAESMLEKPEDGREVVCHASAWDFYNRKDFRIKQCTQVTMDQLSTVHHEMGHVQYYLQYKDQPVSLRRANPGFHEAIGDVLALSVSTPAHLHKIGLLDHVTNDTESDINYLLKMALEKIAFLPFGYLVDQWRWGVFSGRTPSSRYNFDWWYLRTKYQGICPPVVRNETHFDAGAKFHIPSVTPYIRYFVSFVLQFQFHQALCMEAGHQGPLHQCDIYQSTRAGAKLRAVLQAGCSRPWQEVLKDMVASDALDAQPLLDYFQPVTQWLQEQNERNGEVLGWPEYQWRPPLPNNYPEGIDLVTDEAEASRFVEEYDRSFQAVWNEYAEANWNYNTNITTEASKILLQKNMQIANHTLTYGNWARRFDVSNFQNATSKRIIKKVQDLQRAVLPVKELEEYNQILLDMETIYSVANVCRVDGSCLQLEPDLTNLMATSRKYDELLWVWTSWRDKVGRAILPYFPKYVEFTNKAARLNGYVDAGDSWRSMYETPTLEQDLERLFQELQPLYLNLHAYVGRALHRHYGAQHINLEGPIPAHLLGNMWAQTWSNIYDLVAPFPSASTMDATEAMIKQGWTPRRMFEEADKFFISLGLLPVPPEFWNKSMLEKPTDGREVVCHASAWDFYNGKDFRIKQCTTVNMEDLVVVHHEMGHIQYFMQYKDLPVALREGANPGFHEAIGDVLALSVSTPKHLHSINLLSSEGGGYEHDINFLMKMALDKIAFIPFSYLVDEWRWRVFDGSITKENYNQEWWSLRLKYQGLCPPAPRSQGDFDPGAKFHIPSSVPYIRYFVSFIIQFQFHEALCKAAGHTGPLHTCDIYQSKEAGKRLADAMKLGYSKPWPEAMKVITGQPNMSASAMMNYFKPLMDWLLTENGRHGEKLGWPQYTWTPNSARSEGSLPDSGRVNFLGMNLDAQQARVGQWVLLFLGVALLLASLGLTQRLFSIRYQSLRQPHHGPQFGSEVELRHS
The experiment is described as follows: biochemical. In kind it is tissue-based, Lung.

In experiment [2] the target is Mu-type opioid receptor (Homo sapiens, UniProt P35372). The experiment is described as follows: DRUGMATRIX: Opiate mu (OP3, MOP) radioligand binding (ligand: [3H] Diprenorphine). The experiment is classed as cell membranes, CHO-K1, Membrane. The conditions noted are these: Not Active = under 50% inhibition at 10 µM.
Experiment [3] deals with Sigma non-opioid intracellular receptor 1 (Homo sapiens, UniProt Q99720). The experiment is described as follows: DRUGMATRIX: Sigma1 radioligand binding (ligand: [3H] Haloperidol). The conditions noted are these: Not Active = under 50% inhibition at 10 µM. The experiment is classed as cell membranes, Jurkat, Membrane.
A short description of experiment [4]: DRUGMATRIX: Interleukin IL-1 radioligand binding (ligand: [125I] interleukin 1beta). The conditions noted are these: nih3t3; Not Active = under 50% inhibition at 10 µM. In kind it is cell membranes, Membrane.
Experiment [5] in a line: DRUGMATRIX: Glutamate, Kainate radioligand binding (ligand: [3H] Kainic acid). In kind it is cell membranes, Rattus norvegicus, Wistar, Brain, Membrane. The conditions noted are these: Not Active = under 50% inhibition at 10 µM.
In experiment [6] the target is C-C chemokine receptor type 5 (Homo sapiens, UniProt P51681). The experiment is classed as cell membranes, HEK293, Membrane. The conditions noted are these: hek293. Note: in other assays of this panel Not Active means under 50% inhibition at 10 µM.
Experiment [7] deals with 5-hydroxytryptamine receptor 1B (Rattus norvegicus, UniProt P28564). The experiment is classed as cell membranes, Wistar, Cerebral cortex, Membrane. The following applies: for Ki: read-out: Ki.

Each structure is given as a SMILES string.

C-C chemokine receptor type 5, sequence (P51681 whole entry): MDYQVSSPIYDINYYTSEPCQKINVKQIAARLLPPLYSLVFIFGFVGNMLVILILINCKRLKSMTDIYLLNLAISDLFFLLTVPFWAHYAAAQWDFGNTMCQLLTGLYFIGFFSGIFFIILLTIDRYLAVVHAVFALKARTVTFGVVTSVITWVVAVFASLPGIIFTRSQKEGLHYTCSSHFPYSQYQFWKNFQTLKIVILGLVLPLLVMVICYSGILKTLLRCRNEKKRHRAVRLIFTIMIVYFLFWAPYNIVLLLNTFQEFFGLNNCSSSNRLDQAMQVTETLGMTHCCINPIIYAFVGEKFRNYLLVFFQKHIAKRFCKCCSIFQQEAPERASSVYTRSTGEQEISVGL
5-hydroxytryptamine receptor 1B, sequence (P28564 whole entry): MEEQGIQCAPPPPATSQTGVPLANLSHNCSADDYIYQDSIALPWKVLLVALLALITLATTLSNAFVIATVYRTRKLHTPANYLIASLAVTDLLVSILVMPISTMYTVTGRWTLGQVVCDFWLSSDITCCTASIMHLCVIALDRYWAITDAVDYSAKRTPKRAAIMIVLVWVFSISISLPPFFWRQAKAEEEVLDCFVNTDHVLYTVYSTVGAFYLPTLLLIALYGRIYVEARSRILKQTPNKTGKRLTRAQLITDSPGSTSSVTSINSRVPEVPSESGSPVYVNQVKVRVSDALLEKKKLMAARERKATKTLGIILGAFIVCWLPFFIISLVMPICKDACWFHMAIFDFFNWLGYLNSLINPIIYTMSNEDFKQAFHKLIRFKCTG
Sigma non-opioid intracellular receptor 1, sequence (Q99720 whole entry): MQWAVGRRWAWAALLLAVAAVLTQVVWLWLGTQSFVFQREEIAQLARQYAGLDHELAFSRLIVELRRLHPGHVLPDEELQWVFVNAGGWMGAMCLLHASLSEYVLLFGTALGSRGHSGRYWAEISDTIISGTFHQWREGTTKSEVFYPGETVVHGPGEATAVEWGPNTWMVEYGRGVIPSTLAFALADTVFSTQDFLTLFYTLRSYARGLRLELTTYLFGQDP
Mu-type opioid receptor, sequence (P35372 whole entry): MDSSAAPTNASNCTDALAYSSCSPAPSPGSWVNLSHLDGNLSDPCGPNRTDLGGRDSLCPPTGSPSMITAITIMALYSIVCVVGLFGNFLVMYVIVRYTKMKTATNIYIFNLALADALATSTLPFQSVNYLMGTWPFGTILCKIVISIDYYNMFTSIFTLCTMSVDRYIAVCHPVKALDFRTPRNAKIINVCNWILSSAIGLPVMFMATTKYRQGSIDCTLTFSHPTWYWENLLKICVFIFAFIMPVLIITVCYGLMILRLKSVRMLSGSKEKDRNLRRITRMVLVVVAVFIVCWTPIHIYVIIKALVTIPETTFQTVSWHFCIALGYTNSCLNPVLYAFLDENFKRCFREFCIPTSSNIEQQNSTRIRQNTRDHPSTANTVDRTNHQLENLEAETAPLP

The term IC50 denotes the concentration that gives 50% inhibition. As a reminder, the Ki is a measure of affinity in units of concentration, obtained from inhibition or displacement. Turning to `O=C(O)c1ccccc1` [BENZOIC ACID], the IC50 entry in experiment [1], in experiment [2] (cho-k1), in experiment [3] (jurkat), in experiment [4], in experiment [5] and in experiment [6] was “Not Active” throughout. Besides, the IC50 entry in experiment [7] is listed as “Not Active”. Also, the Ki entry in experiment [4] and in experiment [5] was “Not Active” in each case.
With `c1ccc2sc(SSc3nc4ccccc4s3)nc2c1` [BENZOTHIAZYL DISULFIDE], the IC50 entry was “Not Active” in experiment [1]; 3110 nM in experiment [2] (read-out: IC50); “Not Active” in experiment [3] (jurkat); “Not Active” in experiment [4]; “Not Active” in experiment [5]; “Not Active” in experiment [6]. Moreover, the IC50 result in experiment [7] was “Not Active”. In addition, the Ki in experiment [2] was 1260 nM; in experiment [4] it was “Not Active”; in experiment [5], “Not Active”.
Consider `OC[C@H]1O[C@@H]2O[C@H]3[C@H](O)[C@@H](O)[C@@H](O[C@H]4[C@H](O)[C@@H](O)[C@@H](O[C@H]5[C@H](O)[C@@H](O)[C@@H](O[C@H]6[C@H](O)[C@@H](O)[C@@H](O[C@H]7[C@H](O)[C@@H](O)[C@@H](O[C@H]8[C@H](O)[C@@H](O)[C@@H](O[C@H]1[C@H](O)[C@H]2O)O[C@@H]8CO)O[C@@H]7CO)O[C@@H]6CO)O[C@@H]5CO)O[C@@H]4CO)O[C@@H]3CO` [BETADEX], for which the IC50 entry in experiment [1], in experiment [2] (cho-k1), in experiment [3] (jurkat), in experiment [4], in experiment [5] and in experiment [6] was “Not Active” in each case. The IC50 result in experiment [7] was “Not Active”. Besides, the Ki entry in experiment [4] and in experiment [5] was “Not Active” in each case.
As for `C[C@H]1C[C@H]2[C@@H]3CCC4=CC(=O)C=C[C@]4(C)[C@@]3(F)[C@@H](O)C[C@]2(C)[C@@]1(O)C(=O)CO` [BETAMETHASONE], the IC50 result in experiment [1], in experiment [2] (cho-k1), in experiment [3] (jurkat), in experiment [4], in experiment [5] and in experiment [6] was “Not Active” each time. Moreover, the IC50 entry in experiment [7] is recorded as “Not Active”. For the same compound, the Ki result in experiment [4] and in experiment [5] was “Not Active” in each case.
For `CC(C)(c1ccc(O)cc1)c1ccc(O)cc1` [BISPHENOL A], the IC50 entry in experiment [1], in experiment [2] (cho-k1), in experiment [3] (jurkat), in experiment [4], in experiment [5] and in experiment [6] was “Not Active” throughout. Also, the IC50 result in experiment [7] is “Not Active”. The Ki entry in experiment [4] and in experiment [5] was “Not Active” each time.
Regarding `Cc1c(N)nc([C@H](CC(N)=O)NC[C@H](N)C(N)=O)nc1C(=O)N[C@H](C(=O)N[C@H](C)[C@@H](O)[C@H](C)C(=O)N[C@H](C(=O)NCCc1nc(-c2nc(C(=O)NCCC[S+](C)C)cs2)cs1)[C@@H](C)O)[C@@H](O[C@@H]1O[C@@H](CO)[C@@H](O)[C@H](O)[C@@H]1O[C@H]1O[C@H](CO)[C@@H](O)[C@H](OC(N)=O)[C@@H]1O)c1c[nH]cn1.[Br-]` [BLEOMYCIN A2], the IC50 is 588 nM in experiment [1] (read-out: IC50); “Not Active” in experiment [2] (cho-k1); “Not Active” in experiment [3] (jurkat); “Not Active” in experiment [4]; “Not Active” in experiment [5]; “Not Active” in experiment [6]. In experiment [7], the IC50 entry was “Not Active”. Besides, the Ki entry in experiment [4] and in experiment [5] was “Not Active” each time.
As to `CN(Cc1cc(Br)cc(Br)c1N)C1CCCCC1` [BROMHEXINE], the IC50 entry was “Not Active” in experiment [1]; “Not Active” in experiment [2] (cho-k1); 61 nM in experiment [3] (read-out: IC50); “Not Active” in experiment [4]; “Not Active” in experiment [5]; “Not Active” in experiment [6]. The IC50 entry in experiment [7] is listed as “Not Active”. The Ki in experiment [3] (read-out: Ki) was 25 nM; in experiment [4], “Not Active”; in experiment [5], “Not Active”.
As for `CC(N)Cc1c[nH]c2ccc(OCc3cccs3)cc12` (centres undefined) [BW-723C86], the IC50 result in experiment [1], in experiment [2] (cho-k1), in experiment [3] (jurkat), in experiment [4], in experiment [5] and in experiment [6] was “Not Active” in each case. Also, the IC50 in experiment [7] (read-out: IC50) is 421 nM. The values for the Ki result in experiment [4], in experiment [5] and in experiment [7] were “Not Active”, “Not Active” and 400 nM, respectively.
Take `CC12CCC(CC1=O)C2(C)C` (centres undefined) [CAMPHOR]: the IC50 result in experiment [1], in experiment [2] (cho-k1), in experiment [3] (jurkat), in experiment [4], in experiment [5] and in experiment [6] was “Not Active” throughout. Also, the IC50 entry in experiment [7] is “Not Active”. Further, the Ki result in experiment [4] and in experiment [5] was “Not Active” in each case.
As for `C[N+](C)(C)CCOC(N)=O.[Cl-]` [CARBACHOL], the IC50 result in experiment [1], in experiment [2] (cho-k1), in experiment [3] (jurkat), in experiment [4], in experiment [5] and in experiment [6] was “Not Active” each time. In addition, the IC50 entry in experiment [7] is “Not Active”. Further, the Ki entry in experiment [4] and in experiment [5] was “Not Active” each time.
For the compound `CCCCCCNC(=O)n1cc(F)c(=O)[nH]c1=O` [CARMOFUR], the IC50 result in experiment [1], in experiment [2] (cho-k1), in experiment [3] (jurkat), in experiment [4], in experiment [5] and in experiment [6] was “Not Active” in each case. The IC50 entry in experiment [7] is reported as “Not Active”. The Ki result in experiment [4] and in experiment [5] was “Not Active” in each case.
On to `COc1ccccc1OCCNCC(O)COc1cccc2[nH]c3ccccc3c12` (centres undefined) [CARVEDILOL], for which the IC50 result in experiment [1], in experiment [2] (cho-k1), in experiment [3] (jurkat), in experiment [4], in experiment [5] and in experiment [6] was “Not Active” in each case. Moreover, in experiment [7] (read-out: IC50), the IC50 came to 1300 nM. Besides, the Ki result is “Not Active” in experiment [4], “Not Active” in experiment [5] and 589 nM in experiment [7].
`Cl.NC[C@H]1CC[C@H](C(=O)Oc2ccc(CCC(=O)O)cc2)CC1` [CETRAXATE HYDROCHLORIDE]: the IC50 entry in experiment [1], in experiment [2] (cho-k1), in experiment [3] (jurkat), in experiment [4], in experiment [5] and in experiment [6] was “Not Active” throughout. The IC50 result in experiment [7] is listed as “Not Active”. Further, the Ki entry in experiment [4] and in experiment [5] was “Not Active” throughout.
For `CC1(COc2ccc(CC3SC(=O)NC3=O)cc2)CCCCC1` (centres undefined) [CIGLITAZONE], the IC50 result in experiment [1], in experiment [2] (cho-k1), in experiment [3] (jurkat), in experiment [4], in experiment [5] and in experiment [6] was “Not Active” each time. For the same compound, the IC50 entry in experiment [7] is listed as “Not Active”. The Ki result in experiment [4] and in experiment [5] was “Not Active” each time.
`CC(C)Cc1ccc([C@H](C)C(=O)O)cc1` [DEXIBUPROFEN]: the IC50 result in experiment [1], in experiment [2] (cho-k1), in experiment [3] (jurkat), in experiment [4], in experiment [5] and in experiment [6] was “Not Active” in each case. Moreover, the IC50 result in experiment [7] is “Not Active”. Moreover, the Ki result in experiment [4] and in experiment [5] was “Not Active” in each case.

Source of the values: ChEMBL document CHEMBL1909046, “DrugMatrix in vitro pharmacology data”.
